SMILES strings stand for the structures.

In ChEMBL document CHEMBL3739322, “Novel oxime-bearing coumarin derivatives act as potent Nrf2/ARE activators in vitro and in mouse model” (Eur J Med Chem, 2015) one finds fold change (FC) data, which are given here for 41 compounds.

In the assay the target is T1, Nuclear factor erythroid 2-related factor 2 (Homo sapiens) (UniProt Q16236).
T1 sequence (whole entry): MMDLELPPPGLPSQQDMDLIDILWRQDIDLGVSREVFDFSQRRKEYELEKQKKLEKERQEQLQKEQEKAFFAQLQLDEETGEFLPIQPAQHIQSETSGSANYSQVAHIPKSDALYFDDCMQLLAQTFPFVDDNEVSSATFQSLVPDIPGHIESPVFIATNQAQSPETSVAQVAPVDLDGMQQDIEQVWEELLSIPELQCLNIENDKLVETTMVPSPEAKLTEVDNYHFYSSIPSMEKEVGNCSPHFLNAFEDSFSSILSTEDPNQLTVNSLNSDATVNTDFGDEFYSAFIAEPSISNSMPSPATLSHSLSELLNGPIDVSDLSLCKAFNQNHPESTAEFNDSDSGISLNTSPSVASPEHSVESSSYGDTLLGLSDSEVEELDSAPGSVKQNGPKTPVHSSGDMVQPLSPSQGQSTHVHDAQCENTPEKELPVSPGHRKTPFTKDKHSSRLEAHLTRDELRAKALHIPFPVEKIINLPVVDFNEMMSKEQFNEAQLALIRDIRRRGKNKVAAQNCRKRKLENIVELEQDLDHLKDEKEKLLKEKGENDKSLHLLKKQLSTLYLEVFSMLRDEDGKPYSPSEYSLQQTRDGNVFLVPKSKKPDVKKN
Description: Activation of Nrf2 in human HSC3-ARE9 cells assessed as increase of ARE-mediated luciferase expression at 50 uM after 24 hrs relative to control. In kind it is cell-based.

As for `O=c1ccc2ccc(OC/C(=N\O)c3ccc4ccccc4c3)cc2o1`, the fold change (FC) was 1.04. On to `O=C(COc1cc(=O)oc2ccccc12)Nc1ccc2ccccc2c1`, for which the fold change (FC) was found to be 1.37. Next, `C/C(COc1cc2ccccc2oc1=O)=N\O`: 1.63; `O=C(COc1ccc2ccc(=O)oc2c1)Nc1ccc(F)cc1`: 1.16; `O=C(COc1cc(=O)oc2ccccc12)c1ccc2ccccc2c1`: 1.52.

As for `O=c1cc(OC/C(=N\O)c2ccc(F)cc2)c2ccccc2o1`, the fold change (FC) was 1.67. `O=C(COc1cc(=O)oc2ccccc12)c1ccc(-c2ccccc2)cc1`: the fold change (FC) stood at 0.42. Consider `COc1ccc(NC(=O)COc2cc3ccccc3oc2=O)cc1`, for which the fold change (FC) amounted to 0.95. Regarding `O=C(COc1ccc2oc(=O)ccc2c1)Nc1ccc2ccccc2c1`, the fold change (FC) was determined as 0.91. Next, `COc1ccc(/C(COc2ccc3ccc(=O)oc3c2)=N/O)cc1`: 1.28; `COc1ccc(NC(=O)COc2ccc3ccc(=O)oc3c2)cc1`: 0.98. On to `O=c1cc(OC/C(=N\O)c2ccc3ccccc3c2)c2ccccc2o1`, for which the fold change (FC) was determined as 1.43. For `COc1ccc(C(=O)COc2ccc3ccc(=O)oc3c2)cc1`, the fold change (FC) worked out at 1.07. Consider `O=c1ccc2cc(OC/C(=N\O)c3ccc(-c4ccccc4)cc3)ccc2o1`, for which the fold change (FC) came to 1.5. For `O=C(COc1ccc2ccc(=O)oc2c1)c1ccc(F)cc1`, the fold change (FC) amounted to 1.14. On to `O=c1ccc2ccc(OC/C(=N\O)c3ccccc3)cc2o1`, for which the fold change (FC) stood at 2.16. On to `O=c1ccc2ccc(OC/C(=N\O)c3ccc(F)cc3)cc2o1`, for which the fold change (FC) was found to be 1.32. As to `O=c1ccc2cc(OC/C(=N\O)c3ccc4ccccc4c3)ccc2o1`, the fold change (FC) turned out to be 1.46.

For the compound `O=C(COc1ccc2oc(=O)ccc2c1)c1ccccc1`, the fold change (FC) stood at 2.54. With `O=C(COc1cc2ccccc2oc1=O)Nc1ccc(F)cc1`, the fold change (FC) is 1.34. In the case of `O=C(COc1ccc2oc(=O)ccc2c1)c1ccc(F)cc1`, the fold change (FC) worked out at 1.58. In the case of `O=C(COc1ccc2ccc(=O)oc2c1)Nc1ccc2ccccc2c1` it was 1.06; in that of `COc1ccc(C(=O)COc2ccc3oc(=O)ccc3c2)cc1`, 0.82; in that of `COc1ccc(C(=O)COc2cc3ccccc3oc2=O)cc1`, 1.54.

On to `C/C(COc1cc(=O)oc2ccccc12)=N\O`, for which the fold change (FC) amounted to 1.37. As for `CC(=O)COc1cc2ccccc2oc1=O`, the fold change (FC) stood at 0.92. Consider `O=C(COc1ccc2ccc(=O)oc2c1)c1ccccc1`, for which the fold change (FC) is 1.93. Next, `CC(=O)COc1ccc2oc(=O)ccc2c1`: 1.03; `O=C(COc1ccc2ccc(=O)oc2c1)c1ccc(-c2ccccc2)cc1`: 0.85. On to `O=C(COc1ccc2oc(=O)ccc2c1)Nc1ccc(F)cc1`, for which the fold change (FC) is 0.95. For the compound `O=c1cc(OC/C(=N\O)c2ccc(-c3ccccc3)cc2)c2ccccc2o1`, the fold change (FC) stood at 1.32. In the case of `COc1ccc(/C(COc2ccc3oc(=O)ccc3c2)=N/O)cc1`, the fold change (FC) came out at 1.33. In the case of `O=C(COc1cc2ccccc2oc1=O)c1ccc2ccccc2c1` it was 0.98; in that of `O=c1oc2ccccc2cc1OC/C(=N\O)c1ccc2ccccc2c1`, 1.31; in that of `O=c1cc(OC/C(=N\O)c2ccccc2)c2ccccc2o1`, 1.35. Take `O=C(COc1ccc2oc(=O)ccc2c1)Nc1ccc(-c2ccccc2)cc1`: the fold change (FC) is 0.95.

As for `O=c1ccc2ccc(OC/C(=N\O)c3ccc(-c4ccccc4)cc3)cc2o1`, the fold change (FC) was found to be 0.9.

In the case of `O=C(COc1ccc2ccc(=O)oc2c1)Nc1ccc(-c2ccccc2)cc1`, the fold change (FC) was found to be 1.09. `O=C(COc1cc(=O)oc2ccccc12)c1ccccc1`: the fold change (FC) was 1.98. As for `O=C(COc1ccc2oc(=O)ccc2c1)c1ccc2ccccc2c1`, the fold change (FC) turned out to be 0.61.

Take `O=C(COc1cc2ccccc2oc1=O)c1ccc(F)cc1`: the fold change (FC) was determined as 1.64.
